According to US9283235B2, “Intermittent lowering of cortisol as treatment of clinical conditions associated with abnormal concentrations of cortisol in animals” (Stegram Pharmaceuticals Limited, priority 2001, dated 2016):
Values joined by “and” are separate entries in the source; they are usually repeats but may differ in a detail not shown here. Equal entries are not always repeated. “Also recorded” adds a separate entry of the source.

What was measured:
Assay type in all cases: in vivo, horse
[1] = test system: horses with equine Cushing's disease; experiment: Clinical signs in horses with equine Cushing's disease, trilostane once daily in feed for 30 days
Procedure: (§1) The ability of intermittent administration of Trilostane to block adrenal steroidogenesis was assessed in twenty horses (mean age 21, SD 5.7 years) with equine Cushing's disease. The combined dexamethasone suppression thyrotropin releasing hormone (TRH) stimulation test (17 horses) or TRH stimulation test (3 horses) was used as a standard test of function of the hypothalamic-pituitary-adrenal axis. Serum samples for cortisol analysis were collected via indwelling catheter at 4-hourly intervals over 24 hours on each of the test periods. These were before treatment then at 210 minutes (30 min after I mg i.v. TRH) and 22 hours after […] dexamethasone i.m. Affected horses were treated with 0.4 to 1 mg/kg, (mean 0.5 mg/kg) trilostane administered once daily in feed for a period of 30 days. After 30 days endocrine testing was repeated. Serum cortisol before and after treatment was compared by paired t-test.

[2] = test system: hypothalamic-pituitary-adrenal axis; experiment: Combined dexamethasone suppression / TRH stimulation test, serum cortisol in horses
Procedure: as §1
This is similar to the post ACTH stimulation in the dogs. The adrenal gland is not responding to stimulation by pituitary hormone in the same way as before trilostane treatment.

serum cortisol = experiment: Mean serum cortisol over 24 hours (4-hourly samples) in horses with Cushing's disease
Procedure: as §1

[3] = Table 2, individual horses, after trilostane
[4] = Table 5, individual horses, after 30 days 0.4–1.0 mg/k
[5] = mean of horses, after 30 days trilostane
[6] = mean of all horses, once daily 0.4-1.0 mg/k for 30 days

Compound: CC12CCC3C(CC[C@@]45O[C@@H]4C(=O)C(C#N)CC35C)C1CC[C@@H]2O (stereo partly drawn) [Trilostane, 2α-cyano-4α,5α-epoxyandrostan-17β-ol-3-one]
- Lethargy / demeanour after therapy ([1]; lethargy present in 19 horses): improvement in demeanour was evident in all horses
- Polyuria and/or polydipsia after treatment ([1]; present in 11 horses): reduced ill all
- Recurrent, chronic or persistent laminitis improved or showed no recurrence ([1]; present in 17 horses): 14 cases
- Severe, acute laminitis on presentation, response ([1]; three horses, rotation and sinking on radiographs): did not respond to trilostane
- Overall clinical response ([1]; trilostane once-per-day): a clinical response was observed; also recorded: improvement in most of the clinical signs in all horses
- Serum cortisol Post-Treatment Base [2, 3]: 160 and 236 and 116 and 254 and 149 and 127 and 112 and 136 and 65 and 202 and 81 and 100 and 209 and 189 and 121 and 288
- Serum cortisol Post-Treatment Post Dex [2, 3]: 170 and 149 and 118 and 113 (2×) and 82 and 81 (2×) and 163 and 50 and 101 and 138 and 47 and 1 and 153
- Serum cortisol Post-Treatment Post TRH [2, 3]: 114 and 316 and 167 and 193 and 93 and 79 and 139 and 158 and 170 and 88 and 150 and 117 and 100 (2×) and 138 and 224
- % change ([2]; Table 2, individual horses, pre vs post treatment): −60.5% and −69% and −8% and −84% and −82% and −16% and −5% and −27% and −233% and −50% and −1% and −10% and 18% and −57% and 1% and −15.8%
- Different, pre-post: % TRH resp ([2]; Table 5, individual horses): 60% and 69% and 8% and 84% and 52% and 16% (2×) and 5% and 27% and 152% and 50% and 1% and 11% and −18% and 57% and 37%
- Different, pre-post: Base ([2]; Table 5, individual horses): -33 nmol/L and -105 nmol/L and 15 nmol/L and -118 nmol/L and -124 nmol/L and -23 nmol/L and 20 nmol/L and -8 nmol/L and 8 nmol/L and 29 nmol/L and 5 nmol/L and 2 nmol/L and 65 nmol/L and -18 nmol/L and 22 nmol/L and -95 nmol/L
- Different, pre-post: post Dex ([2]; Table 5, individual horses): −20 nmol/l and 12 nmol/l and 4 nmol/l and −10 nmol/l and 7 nmol/l (2×) and −16 nmol/l and −17 nmol/l and 107 nmol/l and 5 nmol/l and 15 nmol/l and −40 nmol/l and 23 nmol/l and 60 nmol/l and −67 nmol/l
- Different, pre-post: post TRH ([2]; Table 5, individual horses): 53 nmol/L and -50 nmol/L and 32 nmol/L and 27 nmol/L and 49 nmol/L and 2 nmol/L and 31 nmol/L and 25 nmol/L and 66 nmol/L and 130 nmol/L and 10 nmol/L and 8 nmol/L and -19 nmol/L and 84 nmol/L and 71 nmol/L and -43 nmol/L
- Cortisol post Trilostane Base [2, 4]: 160 nmol/L and 236 nmol/L and 116 nmol/L and 254 nmol/L and 149 nmol/L and 127 nmol/L and 112 nmol/L and 136 nmol/L and 65 nmol/L and 202 nmol/L and 81 nmol/L and 100 nmol/L and 209 nmol/L and 189 nmol/L and 121 nmol/L and 288 nmol/L
- Cortisol post Trilostane post Dex [2, 4]: 170 nmol/l and 149 nmol/l and 118 nmol/l and 113 nmol/l (2×) and 82 nmol/l and 81 nmol/l (2×) and 163 nmol/l and 50 nmol/l and 101 nmol/l and 138 nmol/l and 47 nmol/l and 1 nmol/l and 153 nmol/l
- Cortisol post Trilostane post TRH [2, 4]: 114 nmol/l and 316 nmol/l and 167 nmol/l and 193 nmol/l and 93 nmol/l and 79 nmol/l and 139 nmol/l and 158 nmol/l and 170 nmol/l and 88 nmol/l and 150 nmol/l and 117 nmol/l and 100 nmol/l (2×) and 138 nmol/l and 224 nmol/l
- post Trilostane % TRH resp [2, 4]: −29% and 34% and 44% and −24% and −38% (2×) and 24% and 16% and 162% and −56% and 85% and 17% and −52% and −27% and −17% and −22%
- Cortisol response to TRH / Dex pre vs post trilostane, in words ([2]; horses, single daily dose): lowering of the response to TRH; also recorded: decrease in cortisol response to TRH administration
- Different, pre-post: % TRH resp, group mean ([2]; mean of horses): 39.2%
- Different, pre-post: Base, group mean ([2]; mean of horses): -22 nmol/L
- Different, pre-post: post Dex, group mean ([2]; mean of horses): 5 nmol/L
- Different, pre-post: post TRH, group mean ([2]; mean of horses): 30 nmol/L
- Cortisol post Trilostane post Dex, group mean ([2]; mean of horses, 22 hours post dexamethasone, after 30 days trilostane): 104 nmol/L
- Cortisol post Trilostane Base, group mean [2, 5]: 159 nmol/L
- Cortisol post Trilostane post TRH, group mean [2, 5]: 147 nmol/L
- Change of serum cortisol concentrations pre vs post trilostane, in words (serum cortisol; horses, once daily dose, 30 days): only a small drop in cortisol levels; also recorded: no apparent change in cortisol concentrations
- Mean Cortisol concentrations over 24 hrs, POST TREATMENT Mean (serum cortisol; individual horses, mean of 6 samples at 4-hourly intervals, after 30 days of oral trilostane): 108 and 203.7 and 157.3 and 263.3 and 143 and 193 and 122.8 and 134.4 and 112 and 152.3 and 113 and 194.7 and 94.8 and 112.3 and 183.3 and 245.5 and 158 and 164.5 and 160 and 149.8
- Serum cortisol, Post Trilosane Mean (serum cortisol; individual horses, mean of 6 samples over 24 hours, once daily 0.4-1.0 mg/k for 30 days, listed as Trilosane): 108 nmol/L and 203.7 nmol/L and 157.3 nmol/L and 263.3 nmol/L and 143 nmol/L and 193 nmol/L and 122.8 nmol/L and 134.4 nmol/L and 112 nmol/L and 152.3 nmol/L and 113 nmol/L and 194.7 nmol/L and 94.8 nmol/L and 112.3 nmol/L and 183.3 nmol/L and 245.5 nmol/L and 158 nmol/L and 164 nmol/L and 1 nmol/L and 149 nmol/L
- Serum cortisol, Difference, pre-post (serum cortisol; individual horses, once daily 0.4-1.0 mg/k for 30 days, listed as Trilosane): -7.5 nmol/L and -61.2 nmol/L and -0.1 nmol/L and -6.8 nmol/L and 4 nmol/L and -38 nmol/L and -3 nmol/L and -17.1 nmol/L and 11 nmol/L and 10.4 nmol/L and 3.6 nmol/L and 34.6 nmol/L and -2.5 nmol/L and 2.4 nmol/L and -24.5 nmol/L and -80.5 nmol/L and -31.5 nmol/L and 5.5 nmol/L and 15.2 nmol/L and 3.4 nmol/L
- Serum cortisol, Difference, pre-post, group mean (serum cortisol; [6]): -9.1 ± 26.9 nmol/L
- Serum cortisol, Post Trilosane Mean, group mean (serum cortisol; [6]): 158.3 nmol/L
